Measured values taken from ChEMBL document CHEMBL1212731, “Nonclonal emergence of colistin-resistant Klebsiella pneumoniae isolates from blood samples in South Korea” (2010).
In brackets after ≈: the same amount, converted by molar mass.

Columns and labels:
Assay type in all cases: functional
Klebsiella pneumoniae [1] = test: Antimicrobial activity against colistin-susceptible Klebsiella pneumoniae isolated from bacteremia patient assessed as percentage of resistant isolates by broth microdilution method
Klebsiella pneumoniae [2] = test: Antimicrobial activity against colistin-resistant Klebsiella pneumoniae isolated from bacteremia patient assessed as percentage of resistant isolates by broth microdilution method
Klebsiella pneumoniae [3] = test: Antimicrobial activity against Klebsiella pneumoniae isolated from bacteremia patient assessed as percentage of resistant isolates by broth microdilution method
Klebsiella pneumoniae [4] = test: Antimicrobial activity against colistin-resistant Klebsiella pneumoniae isolated from bacteremia patient by broth microdilution method

Molecule	Activity (Klebsiella pneumoniae [1])	Activity (Klebsiella pneumoniae [2])	Activity (Klebsiella pneumoniae [3])	MIC50 (Klebsiella pneumoniae [4])	MIC90 (Klebsiella pneumoniae [4])
GENTAMICIN	17%	6.7%	16.3%	0.5 µg/mL	> 64 µg/mL
CC1(C)S[C@@H]2[C@H](NC(=O)[C@H](N)c3ccccc3)C(=O)N2[C@H]1C(=O)O [AMPICILLIN]	92.2%	80%	91.4%	64 µg/mL (≈ 183 µM)	> 64 µg/mL
O=C(O)c1cn(C2CC2)c2cc(N3CCNCC3)c(F)cc2c1=O [CIPROFLOXACIN]	17.5%	20%	17.7%	≤ 0.06 µg/mL	64 µg/mL (≈ 193 µM)
COLISTIN	–	100%	6.8%	1 µg/mL	4 µg/mL
C[C@H]1[C@H](NC(=O)/C(=N\OC(C)(C)C(=O)O)c2csc(N)n2)C(=O)N1S(=O)(=O)O [AZTREONAM]	17.5%	6.7%	16.7%	≤ 0.06 µg/mL	> 64 µg/mL
CO/N=C(\C(=O)N[C@@H]1C(=O)N2C(C(=O)O)=C(COC(C)=O)CS[C@H]12)c1csc(N)n1 [CEFOTAXIME]	15.1%	6.7%	14.5%	≤ 0.12 µg/mL	128 µg/mL (≈ 281 µM)
C[C@@H](O)[C@H]1C(=O)N2C(C(=O)O)=C(SCCNC=N)C[C@H]12 [IMIPENEM ANHYDROUS]	0.5%	–	0.5%	0.25 µg/mL (≈ 0.835 µM)	1 µg/mL (≈ 3.34 µM)
CC(C)(O/N=C(\C(=O)N[C@@H]1C(=O)N2C(C(=O)[O-])=C(C[n+]3ccccc3)CS[C@H]12)c1csc(N)n1)C(=O)O [CEFTAZIDIME]	18.5%	6.7%	17.7%	0.25 µg/mL (≈ 0.457 µM)	> 64 µg/mL
